Test results reported in patent US20110112133A1, “DIHYDRO PYRROLOQUINOLINE DERIVATIVES” (Takeda Pharmaceutical Company Limited, priority 2009, published 2011).

Experiments:
hNK2 receptor [1] = biological target: T1, hNK2 receptor (Homo sapiens, UniProt P21452); assay: Radioligand receptor binding inhibitory activity using membrane fraction of hNK2 receptor-expressing CHO cell ([125I]-NKA); settings: for inhibition at 1 µM / inhibition at 0.1 µM / inhibition at 0.01 µM / inhibition at 10 µM: read-out: hNK2 receptor binding inhibitory activity (inhibitory rate (%)); for inhibition at 10 µM: test compound 10^−5 M
T1 construct: host or cells: CHO cells
T1 sequence (P21452 1-398): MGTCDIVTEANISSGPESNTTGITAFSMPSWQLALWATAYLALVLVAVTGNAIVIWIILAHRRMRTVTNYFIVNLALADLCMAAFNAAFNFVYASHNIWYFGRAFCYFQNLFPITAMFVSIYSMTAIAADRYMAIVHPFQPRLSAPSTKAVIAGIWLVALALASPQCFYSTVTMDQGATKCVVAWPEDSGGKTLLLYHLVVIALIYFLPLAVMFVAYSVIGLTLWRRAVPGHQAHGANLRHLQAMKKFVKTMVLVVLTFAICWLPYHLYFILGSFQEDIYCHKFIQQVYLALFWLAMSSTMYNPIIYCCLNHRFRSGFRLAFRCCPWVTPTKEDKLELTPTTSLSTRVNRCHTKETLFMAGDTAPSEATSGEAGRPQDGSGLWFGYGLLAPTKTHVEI
Experimental: Radioligand Receptor Binding Inhibitory Activity Using Membrane Fraction of hNK2 Receptor-Expressing CHO Cell
hNK2 receptor-expressing CHO cells (produced by EUROSCREEN) were cultured in a flask placed HAM-F12 medium containing 400 μg/mL Geneticin, 100 U/mL penicillin, 100 μg/mL streptomycin and 10% inactivated serum. The medium was removed and adhered cells were washed with PBS, and PBS containing 5 mM EDTA was added to detach the cells from the flask. The cells were recovered by centrifugation, suspended in suspending buffer A (15 mM Tris-HCl (pH 7.5), 12.5 mM MgCl2, 0.3 mM EDTA, 1 mM EGTA (Ethylene Glycol Bis(beta-aminoethylether)-N,N,N,N-tetraacetic Acid)), disrupted by POLYTRON homogenizer (manufactured by KINEMATICA) and centrifuged at 850×g for 10 min at 4° C. The supernatant was recovered and ultracentrifuged at 142000×g for 60 min at 4° C. The precipitated fraction was suspended in suspending buffer B (7.5 mM Tris-HCl (pH 7.5), 12.5 mM MgCl2, 0.3 mM EDTA, 1 mM EGTA, 250 mM sucrose), and cryopreserved (at −80° C.) as a membrane fraction preparation of hNK2 receptor-expressing CHO cell.
The radioligand receptor binding assay was performed in a 96 well microassay plate format with a final volume of 200 μL.
An assay buffer (50 μL, 50 mM Tris-HCl (pH 7.4), 0.02% bovine serum albumin, 2 μg/mL chymostatin, 40 μg/mL bacitracin, 40 μg/mL APMSF, 3 mM MnCl2) was added to a 96 well microassay plate. Thereto was added 50 μL of the above-mentioned cryopreserved membrane fraction preparation suspended in the assay buffer (20 μg/mL). An assay buffer (50 μL) containing 2% dimethyl sulfoxide was added to examine the total binding, 4 μM unlabeled NKA (produced by Peptide Institute, Inc.) solution (50 μL) diluted with an assay buffer containing 2% dimethyl sulfoxide was added to examine non-specific binding, and a test compound diluted with an assay buffer (50 μL, containing 2% dimethyl sulfoxide) was added. Furthermore, […] [^125I]-NKA (produced by NEN) solution (50 μL) was added to each well.
After reaction at room temperature for 30 min, using a cell harvester (manufactured by PerkinElmer), the reaction was stopped by rapid filtration on a unifilter plate (GF/C) (manufactured by PerkinElmer), which had been immersed in 0.3% aqueous polyethyleneimine solution for one day, and the cells were washed 10 times with 50 mM Tris-HCl (pH 7.4) buffer (250 μL) containing 0.02% bovine serum albumin. The GF/C filter plate was dried and 20 μL of MicroScinti-0 (manufactured by PerkinElmer) was added to each well and the radioactivity was measured by TopCount (manufactured by PerkinElmer).
Specific binding is shown by the value obtained by subtracting non-specific binding from the total binding. The binding inhibitory activity of the test compound is shown by the ratio of the value obtained by subtracting the measured value associated with the addition of the test compound from the total binding, to the value of the specific binding.

hNK2 receptor [2] = biological target: T1, hNK2 receptor; assay: Antagonistic activity determined by intracellular calcium concentration using neurokinin A and hNK2 receptor-expressing CHO cell (FLIPR); type: cell-based; settings: neurokinin A stimulation; for inhibition at 10 µM / inhibition at 1 µM / inhibition at 0.1 µM / inhibition at 0.01 µM: CHO, read-out: Antagonistic activity (inhibitory rate (%))
Experimental: Evaluation of Antagonistic Activity Determined by Intracellular Calcium Concentration Using Test Compound, Neurokinin A and hNK2 Receptor-Expressing CHO Cell
hNK2 receptor-expressing CHO cells were seeded on a 384 well plate at 7.5×10^3 cells/well and cultured for 24 hr. Then the medium was removed, 1× recording medium (30 μL, Calcium kit II-Fluo 4: DOJINDO LABORATORIES, Japan) containing prepared 2.5 μg/mL Fluo 4, 2.5 mM probenecid and 20 mM HEPES was added, and the cells were cultured in CO2 incubator (37° C., 5% CO2) for 1 hr. A test compound diluted with 1× recording medium containing 0.05% bovine serum albumin and 20 mM HEPES (10 μL, 0.6% dimethyl sulfoxide) was added. Thereafter, 3 nM neurokinin A solution (20 μL) was added, and changes in the intracellular calcium concentration were measured by FLIPR (Molecular Devices Corporation, Japan). The inhibitory rate of the test compound was calculated with a reaction using DMSO alone and free of the compound as […] and a reaction using 1 nM NKA as 0% inhibition.

Structure (SMILES) | hNK2 receptor binding inhibitory activity (inhibitory rate (%)) (hNK2 receptor [1]; test compound 10^−6 M) [%] | hNK2 receptor binding inhibitory activity (inhibitory rate (%)) (hNK2 receptor [1]; test compound 10^−7 M) [%] | hNK2 receptor binding inhibitory activity (inhibitory rate (%)) (hNK2 receptor [1]; test compound 10^−8 M) [%] | inhibition at 10 µM (hNK2 receptor [2]; test compound 10^−5 M) [%] | inhibition at 1 µM (hNK2 receptor [2]; test compound 10^−6 M) [%] | inhibition at 0.1 µM (hNK2 receptor [2]; test compound 10^−7 M) [%] | inhibition at 0.01 µM (hNK2 receptor [2]; test compound 10^−8 M) [%] | Antagonistic activity (inhibitory rate (%)) (hNK2 receptor [2]; test compound 10^−5 M) [%] | Antagonistic activity (inhibitory rate (%)) (hNK2 receptor [2]; test compound 10^−6 M) [%] | Antagonistic activity (inhibitory rate (%)) (hNK2 receptor [2]; test compound 10^−7 M) [%] | Antagonistic activity (inhibitory rate (%)) (hNK2 receptor [2]; test compound 10^−8 M) [%] | hNK2 receptor binding inhibitory activity (inhibitory rate (%)) (hNK2 receptor [1]; test compound 10^−6 M, hydrochloride) [%] | hNK2 receptor binding inhibitory activity (inhibitory rate (%)) (hNK2 receptor [1]; test compound 10^−8 M, hydrochloride) [%] | inhibition at 1 µM (hNK2 receptor [1]; test compound 10^−6 M) [%] | inhibition at 0.1 µM (hNK2 receptor [1]; test compound 10^−7 M) [%] | inhibition at 0.01 µM (hNK2 receptor [1]; test compound 10^−8 M) [%] | inhibition at 10 µM (hNK2 receptor [1]) [%]
Cc1ccn(-c2ccc(C(=O)N[C@@H]3CCC(F)(F)C[C@@H]3C(=O)N3CCc4c(-c5nccn5COC(=O)C(C)(C)C)nc5ccccc5c43)cc2)n1 [Example 4, [2-(1-{[(1S,2R)-5,5-difluoro-2-({[4-(3-methyl-1H-pyrazol-1-yl)phenyl]carbonyl}amino)cyclohexyl]carbonyl)-2,3-dihydro-1H-pyrrolo[3,2-c]quinolin-4-yl)-1H-imidazol-1-yl]methyl 2,2-dimethylpropanoate] | – | – | – | 91 | 98.7 | 39.5 | -6.8 | – | – | – | – | – | – | 80.1 | 31.6 | -7.5 | –
Cc1ccn(-c2ccc(C(=O)N[C@@H]3CCC(F)(F)C[C@@H]3C(=O)N3CCc4c(-c5ncc[nH]5)nc5ccc(F)cc5c43)cc2)n1 [Example 5, N-[(1R,2S)-4,4-difluoro-2-{[8-fluoro-4-(1H-imidazol-2-yl)-2,3-dihydro-1H-pyrrolo[3,2-c]quinolin-1-yl]carbonyl}cyclohexyl]-4-(3-methyl-1H-pyrazol-1-yl)benzamide] | 100.8 | 99.8 | 96.6 | 87.1 | 100 | 102 | 100 | – | – | – | – | – | – | – | – | – | –
Cc1ccn(-c2ccc(C(=O)N[C@@H]3CCC(F)(F)C[C@@H]3C(=O)N3CCc4c(-c5ccsc5)nc5ccccc5c43)cc2)n1 [Example 7, N-[(1R,2S)-4,4-difluoro-2-{(4-thiophen-3-yl-2,3-dihydro-1H-pyrrolo[3,2-c]quinolin-1-yl)carbonyl]cyclohexyl}-4-(3-methyl-1H-pyrazol-1-yl)benzamide] | – | – | – | 83.7 | 99.3 | 100 | 98.6 | – | – | – | – | – | – | 100 | 100 | 98.8 | 102
Cc1ccn(-c2ccc(C(=O)N[C@@H]3CCC(F)(F)C[C@@H]3C(=O)N3CCc4c(-c5ccccc5)nc5ccc(F)cc5c43)cc2)n1 [Example 9, N-{(1R,2S)-4,4-difluoro-2-[(8-fluoro-4-phenyl-2,3-dihydro-1H-pyrrolo[3,2-c]quinolin-1-yl)carbonyl]cyclohexyl}-4-(3-methyl-1H-pyrazol-1-yl)benzamide] | – | – | – | 84.1 | 96.7 | 100 | 81.9 | – | – | – | – | – | – | 101 | 99.9 | 93.8 | 99.1

Results, then the compound that gave them:

hNK2 receptor binding inhibitory activity (inhibitory rate (%)) (hNK2 receptor [1]; test compound 10^−6 M) [%] | hNK2 receptor binding inhibitory activity (inhibitory rate (%)) (hNK2 receptor [1]; test compound 10^−7 M) [%] | hNK2 receptor binding inhibitory activity (inhibitory rate (%)) (hNK2 receptor [1]; test compound 10^−8 M) [%] | inhibition at 10 µM (hNK2 receptor [2]; test compound 10^−5 M) [%] | inhibition at 1 µM (hNK2 receptor [2]; test compound 10^−6 M) [%] | inhibition at 0.1 µM (hNK2 receptor [2]; test compound 10^−7 M) [%] | inhibition at 0.01 µM (hNK2 receptor [2]; test compound 10^−8 M) [%] | Antagonistic activity (inhibitory rate (%)) (hNK2 receptor [2]; test compound 10^−5 M) [%] | Antagonistic activity (inhibitory rate (%)) (hNK2 receptor [2]; test compound 10^−6 M) [%] | Antagonistic activity (inhibitory rate (%)) (hNK2 receptor [2]; test compound 10^−7 M) [%] | Antagonistic activity (inhibitory rate (%)) (hNK2 receptor [2]; test compound 10^−8 M) [%] | hNK2 receptor binding inhibitory activity (inhibitory rate (%)) (hNK2 receptor [1]; test compound 10^−6 M, hydrochloride) [%] | hNK2 receptor binding inhibitory activity (inhibitory rate (%)) (hNK2 receptor [1]; test compound 10^−8 M, hydrochloride) [%] | inhibition at 1 µM (hNK2 receptor [1]; test compound 10^−6 M) [%] | inhibition at 0.1 µM (hNK2 receptor [1]; test compound 10^−7 M) [%] | inhibition at 0.01 µM (hNK2 receptor [1]; test compound 10^−8 M) [%] | inhibition at 10 µM (hNK2 receptor [1]) [%] | Structure (SMILES)
101.1 | 100.5 | 99.7 | 88.3 | 102 | 102 | 100 | – | – | – | – | – | – | – | – | – | – | Cc1ccn(-c2ccc(C(=O)N[C@@H]3CCC(F)(F)C[C@@H]3C(=O)N3CCc4c(-c5ncc[nH]5)nc5ccccc5c43)cc2)n1 [Example 1, N-[(1R,2S)-4,4-difluoro-2-{[4-(1H-imidazol-2-yl)-2,3-dihydro-1H-pyrrolo[3,2-c]quinolin-1-yl]carbonyl}cyclohexyl]-4-(3-methyl-1H-pyrazol-1-yl)benzamide]
100.7 | 99.7 | 99.6 | – | – | – | – | 88.8 | 102.2 | 102.8 | 100.4 | – | – | – | – | – | – | Br.Cc1ccn(-c2ccc(C(=O)N[C@@H]3CCC(F)(F)C[C@@H]3C(=O)N3CCc4c(-c5ncc[nH]5)nc5ccccc5c43)cc2)n1 [Example 2, N-[(1R,2S)-4,4-difluoro-2-{[4-(1H-imidazol-2-yl)-2,3-dihydro-1H-pyrrolo[3,2-c]quinolin-1-yl]carbonyl}cyclohexyl]-4-(3-methyl-1H-pyrazol-1-yl)benzamide hydrobromide]
– | 101.4 | – | – | – | – | – | 86.8 | 102.5 | 102.9 | 100.5 | 101.7 | 100.3 | – | – | – | – | Cc1ccn(-c2ccc(C(=O)N[C@@H]3CCC(F)(F)C[C@@H]3C(=O)N3CCc4c(-c5ncc[nH]5)nc5ccccc5c43)cc2)n1.Cl [Example 3, N-[(1R,2S)-4,4-difluoro-2-{(4-(1H-imidazol-2-yl)-2,3-dihydro-1H-pyrrolo[3,2-c]quinolin-1-yl]carbonyl}cyclohexyl]-4-(3-methyl-1H-pyrazol-1-yl)benzamide hydrochloride]
